Measurements as given in patent US20240229098A1, “BIOLUMINOGENIC ASSAY FOR DRUG-RESISTANCE BACTERIA DETECTION” (priority 2021, published 2024).

What was measured:
[1] = tested on: clinically bacteria isolates in urine samples; assay: RAPID BLI assay, summary for clinical bacteria isolates in urine samples; assay type: cell-based; details: in 30 mins
From the text: The source of the bioluminescence background emission in bioluminogenic pro-luciferin probes was investigated. In addition to trace amounts of free D-luciferin in the sample, pro-luciferin probes can be oxidized by luciferases due to the promiscuity of the enzyme […]. […] By combining BRET quenching and chemical caging, an ultrasensitive bioluminescent probe D-Bluco was developed that could detect as low as 10-18 moles of β-lactamase activity.

E. coli/TEM = assay: Inhibitor test with E. coli/TEM and D-Bluco; details: D-Bluco 10 μM, no inhibitor
[2] = tested on: KPC-3, BlaC, TEM-1, IMP-1, AmpC, OXA-48; assay: Bioluminescence with panel of recombinant β-lactamases of clinical relevance; assay type: biochemical
Method: FIGS. 9A and 9B illustrates bioluminescent studies of D-Bluco and O-Bluco treating with various β-lactamases. 10 μM of Bluco, D-Bluco and O-Bluco incubated with 20 nM TEM-1 for 15 min in PBS at r.t. The bioluminescent signals for each compound was evaluated with or without the addition of TEM-1 by a luminator. […] The relative bioluminescent was calculated by removing background signal in PBS.
Having confirmed the quenching ability of dabcyl to lower D-Bluco bioluminescent background emission, the activity of D-Bluco towards a variety of β-lactamases that are of clinical relevance in addition to TEM-1, including KPC-3, BlaC (Class A), AmpC (Class C), and OXA-48 (Class D) was then assessed. These enzymes were recombinantly expressed and purified. The bioluminescent signal was measured with an IVIS optical imaging system after treating D-Bluco with each enzyme for 2 hours at room temperature.
D-Bluco and O-Bluco were evaluated with various β-lactamase that of clinical relevance (FIG. 9B and 9C), including KPC-3, BlaC, TEM-1 (Class A), IMP-1 (Class B), AmpC (Class C), and OXA-48 (Class D). These enzymes were recombinantly expressed, purified as previously described^25. The bioluminescent signal was measured after incubating O-Bluco or D-Bluco with each enzyme at different concentrations for 2 hr at r.t. […] This compares favorably to previously reported fluorescent cephalosporin probe with a 1000-fold sensitivity improvement.^26
The caged luciferin probes were incubated with different concentrations of TEM-1 β-lactamase or IMP-1 carbapenemase (0.001-0.1 fmol) in PBS (pH=7.4) for 2 hr at 25° C. Then a mixture of luciferase (200 nM), ATP (2 mM), and MgCl2 (4 mM) was added, and bioluminescent signals were detected with a SpectraMax microplate reader or a luminator.

E. coli/NDM lysate = assay: Bioluminescence with bacterial lysate compared to intact bacteria, E. coli/NDM; details: CHAPS lysis
Method: To evaluate whether releasing β-lactamases from periplasm could improve detection sensitivity, the bacteria were lysed.
Two clinically significant isolates K. pneumoniae expressing KPC carbapenemase (K. pneumoniae/KPC) and E. coli expressing New Delhi metallo β-lactamase (E. coli/NDM) were evaluated.
Bacteria was mixed with 0.5% CHAPS lysis buffer for 15 min, and then incubated with D-Bluco at room temperature for another 15 min. The resulted mixture was combined with assay buffer which contains MgCl2, CoA, ATP, and luciferase for immediate bioluminescent reading.

S. marcescens (SME) = assay: Clinical isolate spiked in synthetic urine, filtered and centrifuged, S. marcescens (SME); assay type: cell-based; details: 10 μM D-Bluco, an hour at 37° C., PBS pH 7.4
Method: FIGS. 11A-11C illustrate detection of clinical isolates spiked in urine with D-Bluco a) Workflow for clinical sample detection b) Bioluminescent response for different concentrations of S. marcescens (SME) or c) E. coli/OXA-48 spiked into synthetic urine samples following the incubation with D-Bluco (10 μM) at 37° C. for an hour. Bioluminescent signal was measured and compared to that of E. coli (10^6 c.f.u/mL).
Urinary tract infection (UTI) is a severe public health problem because of the high recurrence rates and increasing antimicrobial resistance. It is among the major cause of patient morbidity and health care expenditures for both men and women of all age groups, accounting for 1 million cases of nosocomial in USA annually and an estimate cost of 1.6 billion. As a proof-of-concept, we spiked different concentrations of clinic isolates into synthetic urine samples. E. coli expressing OXA-48 and S. marcescens (SME) were chosen as examples. S. marcescens, being an opportunistic pathogen, accounts for an average of 6.5% of all Gram negative infection in intensive Care Units. The spiked urine samples were filtered and centrifuged to collect the bacteria (FIG. 11A). The collected bacteria were then diluted in PBS (pH=7.4) and incubated with 10 μM D-Bluco for an hour at 37° C.

TEM-1 = TEM-1 (Escherichia coli, UniProt P62593); assay: Fluorescence turn-on of caged luciferin probes with recombinant TEM-1 bla; assay type: biochemical; design: made in house
TEM-1, sequence (P62593 24-286 limits assumed): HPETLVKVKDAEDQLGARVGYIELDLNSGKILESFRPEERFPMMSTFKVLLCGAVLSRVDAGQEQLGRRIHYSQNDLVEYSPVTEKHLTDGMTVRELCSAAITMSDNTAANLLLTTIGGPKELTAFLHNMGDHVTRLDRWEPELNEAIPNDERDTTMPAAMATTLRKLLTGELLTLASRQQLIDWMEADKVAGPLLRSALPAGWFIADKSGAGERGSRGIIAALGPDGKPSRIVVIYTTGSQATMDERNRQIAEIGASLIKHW
Method: D-Bluco was evaluated as to whether it could be processed by β-lactamase to release luciferin with one of the most prevalent Ambler class A β-lactamases, TEM-1.
Both probes were evaluated to with TEM-1 bla, one of the most abundant β-Lactamases for initial testing. The fluorescent signal of D-Bluco and O-Bluco incubated with 100 nM TEM-1 bla was examined with a microplate reader over a period of 40 minutes.
General information: All chemicals were purchased from commercial sources and used without further purification. […] QuantiLum Recombinant luciferase (catalog number E1701) was purchased from Promega (Madison, WI). Reaction progress was monitored by analytical thin layer chromatography (TLC) with 0.25 mm silica gel 60F plates and visualized with fluorescent indicator (254 nm). Flash column chromatography was conducted using silica gel (SiliaFlash for flash column, 40-63 μm, 60 Å). The ^1H and ^13C NMR spectra were acquired on a Varian 500 MHz or 600 MHz magnetic resonance spectrometer. Data for ^1H NMR spectra are reported as follows: chemical shifts are reported as δ in units of parts per million (ppm) relative to chloroform-d (δ 7.26, s); multiplicities are reported as follows: s (singlet), d (doublet), t (triplet), q (quartet), dd (doublet of doublets), m (multiplet), or br (broadened); coupling constants are reported as a J value in Hertz (Hz); and the number of protons (n) for a given resonance is indicated nH and based on the spectral integration values. High resolution mass spectra were obtained on a Thermo Exactive Orbitrap LC/MS. HPLC was performed on a Dionex HPLC System (Dionex Corporation) equipped with a GP50 gradient pump and an inline diode array UV-Vis detector. A reversed-phase C18 (Phenomenax, 5 μm, 10×250 mm or Dionex, 5 μm, 4.6×250 mm) column was used with a MeCN (B)/H2O (A) gradient mobile phase containing 0.1% trifluoroacetic acid at a flow of 1 or 3 mL/min for the analysis. Fluorescence Spectra and kinetic experiments were collected by a SpectraMax iD3 multimode microplate reader (Molecular Device, San Jose, CA).

AmpC = assay: Limit of detection of recombinant β-lactamase by bioluminescence (AmpC); assay type: biochemical; details: 2 hours, room temperature; 3 SD of negative control
KPC-3 = KPC-3 (Klebsiella pneumoniae, UniProt Q9F663, H272Y); assay: Limit of detection of recombinant β-lactamase by bioluminescence (KPC-3); assay type: biochemical; details: 2 hours, room temperature; 3 SD of negative control
KPC-3, sequence (Q9F663 25-293 H272Y): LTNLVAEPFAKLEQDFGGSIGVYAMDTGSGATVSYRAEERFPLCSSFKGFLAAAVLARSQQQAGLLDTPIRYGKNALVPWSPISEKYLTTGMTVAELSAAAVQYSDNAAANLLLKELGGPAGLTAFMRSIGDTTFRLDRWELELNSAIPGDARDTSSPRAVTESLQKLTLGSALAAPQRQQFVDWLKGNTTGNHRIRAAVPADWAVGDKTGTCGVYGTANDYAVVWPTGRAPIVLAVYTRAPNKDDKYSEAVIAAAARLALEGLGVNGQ

BlaC = molecular target: T1, BlaC (Mycobacterium tuberculosis, UniProt P9WKD3); assay: Limit of detection of recombinant β-lactamase by bioluminescence (BlaC); assay type: biochemical; details: 2 hours, room temperature; 3 SD of negative control
T1 construct: made in house
T1 sequence (P9WKD3 35-307): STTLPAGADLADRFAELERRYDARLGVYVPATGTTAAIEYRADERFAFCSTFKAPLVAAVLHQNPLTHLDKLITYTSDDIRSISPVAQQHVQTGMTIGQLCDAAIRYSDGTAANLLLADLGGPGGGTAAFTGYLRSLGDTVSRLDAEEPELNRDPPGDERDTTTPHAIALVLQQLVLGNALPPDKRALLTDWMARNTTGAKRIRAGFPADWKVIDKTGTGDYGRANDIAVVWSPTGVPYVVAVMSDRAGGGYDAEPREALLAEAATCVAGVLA

## CN(C)c1ccc(/N=N/c2ccc(C(=O)NCCCCCC(=O)NC3C(=O)N4C(C(=O)O)=C(COc5ccc6nc(C7=N[C@@H](C(=O)O)CS7)sc6c5)C[S+]([O-])C34)cc2)cc1 (stereo partly drawn) [D-Bluco, 3-(((2-((S)-4-carboxy-4,5-dihydrothiazol-2-yl)benzo[d]thiazol-6-yl)oxy)methyl)-7-(6-(4-((E)-(4-(dimethylamino)phenyl)diazenyl)benzamido)hexanamido)-8-oxo-5-thia-1-azabicyclo[4.2.0]oct-2-ene-2-carboxylic acid 5-oxide]
[1]
  sensitivity of RAPID BLI assay for clinical isolates in urine samples: 10^2-10^3 cfu/mL
E. coli/TEM
  increase of bioluminescent intensity of E. coli/TEM-1 treated with probe over PBS: 260 fold
[2]
  lowest detectable β-lactamase activity: 10-18 moles
[2]; KPC-3, BlaC, TEM-1, IMP-1, AmpC, OXA-48, 2 hr at r.t.
  detection limits for the panel of enzymes: within the femtomole range
[2]; each enzyme 2 hours at room temperature, IVIS imaging
  bioluminescence triggered by β-lactamases TEM-1, KPC-3, BlaC, AmpC, OXA-48: significant bioluminescence
E. coli/NDM lysate
  signal enhancement with lysate compared to intact bacteria: 145 fold
S. marcescens (SME)
  concentration from which significant bioluminescence enhancement is seen: 10^4 c.f.u/mL
TEM-1; 1 μM probe, TEM-1 100 nM, 40 min, PBS pH 7.4, r.t., excitation 330 nm, emission 530 nm
  fold increase in fluorescence emission in the presence of TEM-1: 37.6 fold
TEM-1; TEM-1 bla 100 nM, monitored over 40 minutes
  time of rapid fluorescence intensity increase before plateau: ≤ 10 min
TEM-1; without TEM-1, excitation 330 nm, emission 530 nm
  fluorescence emission in the absence of TEM-1: little emission
AmpC
  limit of detection (LOD) of AmpC: 0.1 femtomole
KPC-3
  limit of detection (LOD) of KPC-3 (all other β-lactamases): 0.001 femtomole
BlaC
  limit of detection (LOD) of BlaC (all other β-lactamases): 0.001 femtomole
